As usually defined, the Ki is the equilibrium dissociation constant of an inhibitor or competing ligand from its target.

The values that follow come from patent US8999940B2 (Ipsen Pharma S.A.S., priority 2008, dated 2015).

In data set [1] the target is T1, human recombinant GIP receptor (Homo sapiens, UniProt P48546).
T1 construct: expressed in transfected cells; host or cells: CHO-K1 clonal cells (membrane preparation)
T1 sequence (P48546 22-466): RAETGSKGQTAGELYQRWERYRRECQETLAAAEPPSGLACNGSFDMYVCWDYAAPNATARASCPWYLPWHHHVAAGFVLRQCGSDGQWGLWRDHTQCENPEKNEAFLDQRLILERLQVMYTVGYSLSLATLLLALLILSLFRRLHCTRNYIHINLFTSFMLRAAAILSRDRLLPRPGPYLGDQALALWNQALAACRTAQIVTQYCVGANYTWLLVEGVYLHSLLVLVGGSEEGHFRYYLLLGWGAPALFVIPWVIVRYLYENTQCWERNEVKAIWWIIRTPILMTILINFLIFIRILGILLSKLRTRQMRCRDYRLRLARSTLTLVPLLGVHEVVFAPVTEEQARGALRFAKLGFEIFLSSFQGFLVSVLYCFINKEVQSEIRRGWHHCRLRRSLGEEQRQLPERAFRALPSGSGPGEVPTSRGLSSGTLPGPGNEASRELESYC
Briefly: In vitro hGIP receptor binding assay. As to the method:
A. In Vitro hGIP Receptor Binding Assay […] The incubations were terminated by rapid filtration through GF/C filters (pre-soaked in 0.5% polyethylenimine) using a Brandel filtration manifold. Each tube and filter were then washed three times with 5-ml aliquots of ice-cold buffer.

Data set [2] is described as follows: Human plasma half-life assay. The format is in vitro ADME. Conditions: 37° C., LC-MS, read-out: Human Plasma T½ (converted). As to the method:
(§1) B. Human and Rat Plasma Half-Life Assay
(§2) 50 μl was removed at various times, like at 0, 1, 2, 3, 4, 8, 24, 32, 48, 56, 72 hours, mixed with 5 μl formic acid and 150 μL acetonitrile in a microcentrifuge tube, vertexed, and centrifuged for 10 minutes at 10 K rpm. The supernatant was transferred to an injection vial and analyzed by LC-MS. The LC-MS system consisted of an API4000 mass spectrometer with an ESI probe. Positive ion mode and full scan detection were used. HPLC separation was carried out on a Luna 3μ. C8 (2), 2×30 mm column with a gradient from 90% A to 90% B in 10 minutes at a flow rate of 0.3 ml/min. Buffer A was 1% formic acid in water and buffer B was 1% formic acid acetonitrile.

Data set [3] is described as follows: Rat plasma half-life assay. The format is in vitro ADME. Conditions: 37° C., LC-MS, read-out: Rat Plasma T½ (converted). As to the method:
as §1, §2

A value given as a limit tells only on which side of the number the result lay.

Consider `CCCC[C@H](NC(=O)[C@H](C)NC(=O)[C@@H](NC(=O)C1(NC(=O)[C@H](Cc2ccc(O)cc2)NC(=O)[C@H](CC(=O)O)NC(=O)[C@H](CO)NC(=O)[C@@H](NC(=O)[C@H](Cc2ccccc2)NC(=O)[C@@H](NC(=O)CNC(=O)[C@H](CCC(=O)O)NC(=O)C(C)(C)NC(=O)[C@@H](N)Cc2ccc(O)c(Br)c2)[C@@H](C)O)[C@@H](C)CC)CCCC1)[C@@H](C)CC)C(=O)N[C@@H](CC(=O)O)C(=O)N[C@@H](CCCCN)C(=O)N[C@H](C(=O)N[C@@H](Cc1c[nH]cn1)C(=O)N[C@@H](CCC(N)=O)C(=O)N[C@@H](CCC(N)=O)C(=O)N[C@@H](CC(=O)O)C(=O)N[C@@H](Cc1ccccc1)C(=O)N[C@H](C(=O)N[C@@H](CC(N)=O)C(=O)N[C@@H](Cc1c[nH]c2ccccc12)C(=O)N[C@@H](CC(C)C)C(=O)N[C@@H](CC(C)C)C(=O)N[C@@H](C)C(=O)N[C@@H](CCC(N)=O)C(=O)N[C@@H](CCCCN)C(=O)NCC(=O)N[C@@H](CCCCN)C(=O)N[C@@H](CCCCN)C(=O)N[C@@H](CC(N)=O)C(=O)N[C@@H](CC(=O)O)C(=O)N[C@@H](Cc1c[nH]c2ccccc12)C(=O)N[C@@H](CCCCN)C(=O)N[C@@H](Cc1c[nH]cn1)C(=O)N[C@@H](CC(N)=O)C(=O)N[C@H](C(=O)N[C@H](C(=O)N[C@@H](CCC(N)=O)C(=O)O)[C@@H](C)O)[C@@H](C)CC)C(C)C)[C@@H](C)CC` [Example 15, (3Br-Tyr^1, Aib^2, A5c^11, Nle^14)hGIP(1-42)-OH], for which the Ki in data set [1] stood at 0.6 nM. Besides, the half-life at 0.1 mg/ml in data set [2] was 50.6 h; in data set [3], 22.9 h.
For `CCCC[C@H](NC(=O)[C@H](C)NC(=O)[C@@H](NC(=O)C1(NC(=O)[C@H](Cc2ccc(O)cc2)NC(=O)[C@H](CC(=O)O)NC(=O)[C@H](CO)NC(=O)[C@@H](NC(=O)[C@H](Cc2ccccc2)NC(=O)[C@@H](NC(=O)CNC(=O)[C@H](CCC(=O)O)NC(=O)C(C)(C)NC(=O)[C@@H](N)Cc2ccc(O)c(I)c2)[C@@H](C)O)[C@@H](C)CC)CCCC1)[C@@H](C)CC)C(=O)N[C@@H](CC(=O)O)C(=O)N[C@@H](CCCCN)C(=O)N[C@H](C(=O)N[C@@H](Cc1c[nH]cn1)C(=O)N[C@@H](CCC(N)=O)C(=O)N[C@@H](CCC(N)=O)C(=O)N[C@@H](CC(=O)O)C(=O)N[C@@H](Cc1ccccc1)C(=O)N[C@H](C(=O)N[C@@H](CC(N)=O)C(=O)N[C@@H](Cc1c[nH]c2ccccc12)C(=O)N[C@@H](CC(C)C)C(=O)N[C@@H](CC(C)C)C(=O)N[C@@H](C)C(=O)N[C@@H](CCC(N)=O)C(=O)N[C@@H](CCCCN)C(=O)NCC(=O)N[C@@H](CCCCN)C(=O)N[C@@H](CCCCN)C(=O)N[C@@H](CC(N)=O)C(=O)N[C@@H](CC(=O)O)C(=O)N[C@@H](Cc1c[nH]c2ccccc12)C(=O)N[C@@H](CCCCN)C(=O)N[C@@H](Cc1c[nH]cn1)C(=O)N[C@@H](CC(N)=O)C(=O)N[C@H](C(=O)N[C@H](C(=O)N[C@@H](CCC(N)=O)C(=O)O)[C@@H](C)O)[C@@H](C)CC)C(C)C)[C@@H](C)CC` [Example 16, (3I-Tyr^1, Aib^2, A5c^11, Nle^14)hGIP(1-42)-OH], in that order: 5.03 nM, 52.1 h and 18.5 h.
On to `CCCC[C@H](NC(=O)[C@H](C)NC(=O)[C@@H](NC(=O)C1(NC(=O)[C@H](Cc2ccc(O)cc2)NC(=O)[C@H](CC(=O)O)NC(=O)[C@H](CO)NC(=O)[C@@H](NC(=O)[C@H](Cc2ccccc2)NC(=O)[C@@H](NC(=O)CNC(=O)[C@H](CCC(=O)O)NC(=O)C(C)(C)NC(=O)[C@@H](N)Cc2cc(I)c(O)c(I)c2)[C@@H](C)O)[C@@H](C)CC)CCCC1)[C@@H](C)CC)C(=O)N[C@@H](CC(=O)O)C(=O)N[C@@H](CCCCN)C(=O)N[C@H](C(=O)N[C@@H](Cc1c[nH]cn1)C(=O)N[C@@H](CCC(N)=O)C(=O)N[C@@H](CCC(N)=O)C(=O)N[C@@H](CC(=O)O)C(=O)N[C@@H](Cc1ccccc1)C(=O)N[C@H](C(=O)N[C@@H](CC(N)=O)C(=O)N[C@@H](Cc1c[nH]c2ccccc12)C(=O)N[C@@H](CC(C)C)C(=O)N[C@@H](CC(C)C)C(=O)N[C@@H](C)C(=O)N[C@@H](CCC(N)=O)C(=O)N[C@@H](CCCCN)C(=O)NCC(=O)N[C@@H](CCCCN)C(=O)N[C@@H](CCCCN)C(=O)N[C@@H](CC(N)=O)C(=O)N[C@@H](CC(=O)O)C(=O)N[C@@H](Cc1c[nH]c2ccccc12)C(=O)N[C@@H](CCCCN)C(=O)N[C@@H](Cc1c[nH]cn1)C(=O)N[C@@H](CC(N)=O)C(=O)N[C@H](C(=O)N[C@H](C(=O)N[C@@H](CCC(N)=O)C(=O)O)[C@@H](C)O)[C@@H](C)CC)C(C)C)[C@@H](C)CC` [Example 17, (3,51-Tyr^1, Aib^2, A5c^11, Nle^14)hGIP(1-42)-OH], for which, in data set [1], the Ki was determined as 77.9 nM. Besides, the half-life at 0.1 mg/ml was over 72 h in data set [2] and 30.1 h in data set [3].
`CCCC[C@H](NC(=O)[C@H](C)NC(=O)[C@@H](NC(=O)C1(NC(=O)[C@H](Cc2ccc(O)cc2)NC(=O)[C@H](CC(=O)O)NC(=O)[C@H](CO)NC(=O)[C@@H](NC(=O)[C@H](Cc2ccccc2)NC(=O)[C@@H](NC(=O)CNC(=O)[C@H](CCC(=O)O)NC(=O)C(C)(C)NC(=O)[C@@H](N)Cc2ccc(N)cc2)[C@@H](C)O)[C@@H](C)CC)CCCC1)[C@@H](C)CC)C(=O)N[C@@H](CC(=O)O)C(=O)N[C@@H](CCCCN)C(=O)N[C@H](C(=O)N[C@@H](Cc1c[nH]cn1)C(=O)N[C@@H](CCC(N)=O)C(=O)N[C@@H](CCC(N)=O)C(=O)N[C@@H](CC(=O)O)C(=O)N[C@@H](Cc1ccccc1)C(=O)N[C@H](C(=O)N[C@@H](CC(N)=O)C(=O)N[C@@H](Cc1c[nH]c2ccccc12)C(=O)N[C@@H](CC(C)C)C(=O)N[C@@H](CC(C)C)C(=O)N[C@@H](C)C(=O)N[C@@H](CCC(N)=O)C(=O)N[C@@H](CCCCN)C(=O)NCC(=O)N[C@@H](CCCCN)C(=O)N[C@@H](CCCCN)C(=O)N[C@@H](CC(N)=O)C(=O)N[C@@H](CC(=O)O)C(=O)N[C@@H](Cc1c[nH]c2ccccc12)C(=O)N[C@@H](CCCCN)C(=O)N[C@@H](Cc1c[nH]cn1)C(=O)N[C@@H](CC(N)=O)C(=O)N[C@H](C(=O)N[C@H](C(=O)N[C@@H](CCC(N)=O)C(=O)O)[C@@H](C)O)[C@@H](C)CC)C(C)C)[C@@H](C)CC` [Example 18, (4NH2-Phe^1, Aib^2, A5c^11, Nle^14)hGIP(1-42)-OH]: in data set [1], the Ki came to 3.4 nM. In addition, the half-life at 0.1 mg/ml is over 72 h in data set [2] and 32.1 h in data set [3].
Regarding `CCCC[C@H](NC(=O)[C@H](C)NC(=O)[C@@H](NC(=O)C1(NC(=O)[C@H](Cc2ccc(O)cc2)NC(=O)[C@H](CC(=O)O)NC(=O)[C@H](CO)NC(=O)[C@@H](NC(=O)[C@H](Cc2ccccc2)NC(=O)[C@@H](NC(=O)CNC(=O)[C@H](CCC(=O)O)NC(=O)C(C)(C)NC(=O)[C@@H](N)CCc2ccc(O)cc2)[C@@H](C)O)[C@@H](C)CC)CCCC1)[C@@H](C)CC)C(=O)N[C@@H](CC(=O)O)C(=O)N[C@@H](CCCCN)C(=O)N[C@H](C(=O)N[C@@H](Cc1c[nH]cn1)C(=O)N[C@@H](CCC(N)=O)C(=O)N[C@@H](CCC(N)=O)C(=O)N[C@@H](CC(=O)O)C(=O)N[C@@H](Cc1ccccc1)C(=O)N[C@H](C(=O)N[C@@H](CC(N)=O)C(=O)N[C@@H](Cc1c[nH]c2ccccc12)C(=O)N[C@@H](CC(C)C)C(=O)N[C@@H](CC(C)C)C(=O)N[C@@H](C)C(=O)N[C@@H](CCC(N)=O)C(=O)N[C@@H](CCCCN)C(=O)NCC(=O)N[C@@H](CCCCN)C(=O)N[C@@H](CCCCN)C(=O)N[C@@H](CC(N)=O)C(=O)N[C@@H](CC(=O)O)C(=O)N[C@@H](Cc1c[nH]c2ccccc12)C(=O)N[C@@H](CCCCN)C(=O)N[C@@H](Cc1c[nH]cn1)C(=O)N[C@@H](CC(N)=O)C(=O)N[C@H](C(=O)N[C@H](C(=O)N[C@@H](CCC(N)=O)C(=O)O)[C@@H](C)O)[C@@H](C)CC)C(C)C)[C@@H](C)CC` [Example 19, (hTyr^1, Aib^2, A5c^11, Nle^14)hGIP(1-42)-OH], the Ki in data set [1] came out at 77.3 nM. The half-life at 0.1 mg/ml in data set [2] was over 72 h; in data set [3], 15.2 h.
